{"source": "patent US20060052751A1", "about": "“Fast perfusion cell chamber” (priority 2004, published 2006)", "tested_on": "GABA transporter isoform GAT4", "assay": "GABA concentration jump, two-electrode voltage clamp in Xenopus laevis oocyte in fast perfusion chamber", "format": "cell-based", "conditions": "oocyte expressing GAT4, N=6", "description": "The usefulness of the Xenopus oocyte expression system for a variety of electrogenic membrane proteins has driven us to invent a novel rapid perfusion method which allows fast (≦20 ms) solution changes around intact, voltage-clamped Xenopus laevis oocytes (FIGS. 1-4). The present invention permits rapid solution changes to be made about voltage-clamped Xenopus laevis oocytes, while preserving the integrity of the cellular membrane. Defolliculated oocytes (intact vitelline membrane) and conventional two-electrode voltage clamp are used. For fast perfusion, the oocyte is placed in-line with the flow of buffer. The oocyte is supported primarily by an oocyte support base (6) equipped with oocyte support prongs (12), which prevent cellular movement. The current and voltage electrodes (4, 5) (for electrophysiological measurements) provide some support. Buffer flows from above the oocyte in a vertical direction (driven by gravity), at adjustable rates ranging from 1-50 ml/min. Healthy oocytes withstand maximal flow rates due to the chamber's support mechanisms.\nIn the absence of oocyte in the chamber, the fluid exchange rate at the recording electrodes is ≈3 ms at maximal buffer flow rates (FIG. 5), the fastest solution change rate ever reported for Xenopus laevis oocytes. The exchange rate with oocyte in place is more difficult to determine due to the highly invaginated surface of the cell (i.e., microvilli), but is estimated to be no more than ≈20 ms. The geometry of the oocyte, microvilli in the oocyte plasma membrane, as well as the oocyte vitelline membrane most likely contribute to this slowing effect. […] A number of features of the system have been examined with oocytes expressing the human γ-aminobutyric acid transporter protein and compared with results obtained from traditional methods (FIGS. 6 and 7). This system permits examination of ligand interaction with electrogenic membrane proteins, a proposition which has heretofore been unattainable. The system also allows for rapid determination of kinetic parameters for drugs of interest.\nFIGS. 6A and 6B show a representative γ-aminobutyric acid (GABA) concentration jump in an oocyte expressing the GABA transporter isoform GAT4. The membrane potential (Vm) was held at −50 mV and the GABA concentration was 0.5 mM. […] This rapid transient induced by a concentration jump represents the fastest ever reported with the two-electrode voltage clamp for any membrane protein expressed in the Xenopus laevis oocyte expression system. […] The steady-state current represents steady-state Na^+/Cl^−/GABA cotransport into the cell. Only the steady-state current is observed in conventional two-electrode voltage clamp records (not shown). The rapid transient represents fast GABA-evoked electrogenic transitions. […] Referring to FIG. 6B, if GABA and Na^+ are simultaneously introduced, the rapid transient phase is absent and the evoked current follows a monoexponential behavior (τ=602±98 ms; N=6). […] Because these events are very fast events, these measurements would not have been possible without the present invention. Thus, our perfusion chamber allows the acquisition of novel information from electrogenic membrane transport proteins expressed in oocytes.", "data": [{"smiles": "NCCCC(=O)O", "note": "[GABA, γ-aminobutyric acid]", "values": [{"measurement": "time constant (τ) of monoexponential evoked current", "setting": "GABA and Na+ simultaneously introduced, rapid transient phase absent", "result": "602 ± 98", "unit": "ms"}, {"measurement": "time constant of decay of rapid transient phase of GABA-evoked current", "setting": "Vm -50 mV, GABA 0.5 mM", "result": "15 ± 2", "unit": "ms"}, {"measurement": "time constant of mono-exponential decay of GABA-evoked current back to baseline upon rapid removal of GABA", "setting": "Vm -50 mV, GABA 0.5 mM", "result": "4.0 ± 0.6", "unit": "s"}, {"measurement": "time constant of mono-exponential decay of slow transient phase to steady-state", "setting": "Vm -50 mV, GABA 0.5 mM", "result": "1.3 ± 0.1", "unit": "s"}, {"measurement": "time-to-peak of rapid transient phase of GABA-evoked inward current", "setting": "Vm -50 mV, GABA 0.5 mM", "result": "20 ± 5", "unit": "ms"}]}]}
